Source: ChEMBL document CHEMBL4507293 (2021)

Tests used:
[1] = target: Cyclin-dependent kinase 2 homolog (Plasmodium falciparum (isolate 3D7)) (UniProt P61075); settings: Compound concentration 100.0 nM
[2] = target: Serine/threonine-protein kinase TAO3 (Homo sapiens) (UniProt Q9H2K8); settings: Compound concentration 100.0 nM
[3] = target: Cyclin-dependent kinase-like 3 (Homo sapiens) (UniProt Q8IVW4); settings: Compound concentration 100.0 nM
[4] = system: Tyrosine-protein kinase ABL1 (Homo sapiens), P00519 [Q252H]; settings: Compound concentration 100.0 nM
[5] = target: Tyrosine-protein kinase HCK (Homo sapiens) (UniProt P08631); settings: Compound concentration 100.0 nM
[6] = target: Ephrin type-A receptor 2 (Homo sapiens) (UniProt P29317); settings: Compound concentration 100.0 nM
Chain of Ephrin type-A receptor 2 (Homo sapiens) (P29317 whole entry): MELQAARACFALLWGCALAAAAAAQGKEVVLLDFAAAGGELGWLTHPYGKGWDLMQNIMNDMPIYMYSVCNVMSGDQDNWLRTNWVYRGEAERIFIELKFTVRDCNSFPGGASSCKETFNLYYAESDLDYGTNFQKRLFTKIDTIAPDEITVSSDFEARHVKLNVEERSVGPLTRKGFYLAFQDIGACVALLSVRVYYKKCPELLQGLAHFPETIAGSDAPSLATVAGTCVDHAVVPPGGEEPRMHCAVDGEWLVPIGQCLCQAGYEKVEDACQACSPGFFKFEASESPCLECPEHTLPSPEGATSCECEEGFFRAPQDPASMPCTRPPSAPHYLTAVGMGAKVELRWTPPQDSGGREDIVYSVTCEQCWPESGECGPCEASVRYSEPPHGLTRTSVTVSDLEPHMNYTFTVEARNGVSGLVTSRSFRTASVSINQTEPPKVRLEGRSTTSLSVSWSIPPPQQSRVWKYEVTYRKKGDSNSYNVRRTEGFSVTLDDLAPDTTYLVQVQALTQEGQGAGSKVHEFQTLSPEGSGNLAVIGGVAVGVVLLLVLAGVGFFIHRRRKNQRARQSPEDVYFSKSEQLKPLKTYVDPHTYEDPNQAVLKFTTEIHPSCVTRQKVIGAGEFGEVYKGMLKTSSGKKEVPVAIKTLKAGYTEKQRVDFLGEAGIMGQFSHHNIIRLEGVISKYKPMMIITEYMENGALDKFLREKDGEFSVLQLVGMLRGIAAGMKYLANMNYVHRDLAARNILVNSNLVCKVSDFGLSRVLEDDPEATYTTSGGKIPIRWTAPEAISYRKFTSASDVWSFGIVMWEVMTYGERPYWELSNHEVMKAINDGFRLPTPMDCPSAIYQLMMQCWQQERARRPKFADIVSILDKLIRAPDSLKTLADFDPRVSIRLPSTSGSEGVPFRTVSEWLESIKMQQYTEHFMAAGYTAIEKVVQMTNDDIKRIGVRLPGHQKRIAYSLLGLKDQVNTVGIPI

[7] = target: Tyrosine-protein kinase Fyn (Homo sapiens) (UniProt P06241); settings: Compound concentration 100.0 nM
[8] = target: ALK tyrosine kinase receptor (Homo sapiens) (UniProt Q9UM73); settings: Compound concentration 100.0 nM
[9] = target: Tyrosine-protein kinase receptor TYRO3 (Homo sapiens) (UniProt Q06418); settings: Compound concentration 100.0 nM
[10] = target: Tyrosine-protein kinase BTK (Homo sapiens) (UniProt Q06187); settings: Compound concentration 100.0 nM
[11] = target: Serine/threonine-protein kinase 17B (Homo sapiens) (UniProt O94768); settings: Compound concentration 100.0 nM
[12] = system: Tyrosine-protein kinase ABL1 (Homo sapiens), P00519 [F317I]; settings: Compound concentration 100.0 nM
[13] = target: TGF-beta receptor type-2 (Homo sapiens) (UniProt P37173); settings: Compound concentration 100.0 nM
[14] = target: Delta-type opioid receptor (Homo sapiens) (UniProt P41143); settings: Compound concentration 10.0 uM
[15] = target: Inhibitor of nuclear factor kappa-B kinase subunit epsilon (Homo sapiens) (UniProt Q14164); settings: Compound concentration 100.0 nM
[16] = target: Mitogen-activated protein kinase kinase kinase 5 (Homo sapiens) (UniProt Q99683); settings: Compound concentration 100.0 nM
[17] = target: 5-hydroxytryptamine receptor 1B (Homo sapiens) (UniProt P28222); settings: Compound concentration 10.0 uM
[18] = system: Mast/stem cell growth factor receptor Kit (Homo sapiens), P10721 [D816V]; settings: Compound concentration 100.0 nM
[19] = target: Receptor-interacting serine/threonine-protein kinase 2 (Homo sapiens) (UniProt O43353); settings: Compound concentration 100.0 nM
Chain of Receptor-interacting serine/threonine-protein kinase 2 (Homo sapiens) (O43353 whole entry): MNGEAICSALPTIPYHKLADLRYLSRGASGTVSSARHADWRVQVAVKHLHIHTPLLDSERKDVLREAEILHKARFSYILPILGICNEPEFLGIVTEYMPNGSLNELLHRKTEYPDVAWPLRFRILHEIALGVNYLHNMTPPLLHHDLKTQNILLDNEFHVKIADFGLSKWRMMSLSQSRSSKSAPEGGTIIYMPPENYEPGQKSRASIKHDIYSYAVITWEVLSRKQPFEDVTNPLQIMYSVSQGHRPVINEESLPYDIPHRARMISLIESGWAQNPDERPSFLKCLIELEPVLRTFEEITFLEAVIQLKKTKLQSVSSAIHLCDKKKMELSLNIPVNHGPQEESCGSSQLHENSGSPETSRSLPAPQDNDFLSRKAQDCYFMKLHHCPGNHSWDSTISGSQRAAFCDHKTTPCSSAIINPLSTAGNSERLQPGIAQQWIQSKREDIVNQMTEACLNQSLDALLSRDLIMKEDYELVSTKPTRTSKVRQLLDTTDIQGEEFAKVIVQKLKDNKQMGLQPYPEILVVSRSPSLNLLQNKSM

[20] = target: Cyclin-dependent kinase 2 (Homo sapiens) (UniProt P24941); settings: Compound concentration 100.0 nM
[21] = target: cGMP-inhibited 3',5'-cyclic phosphodiesterase 3A (Homo sapiens, UniProt Q14432); assay: Biochemical assay (PDE3A)
Chain of cGMP-inhibited 3',5'-cyclic phosphodiesterase 3A (Q14432 whole entry): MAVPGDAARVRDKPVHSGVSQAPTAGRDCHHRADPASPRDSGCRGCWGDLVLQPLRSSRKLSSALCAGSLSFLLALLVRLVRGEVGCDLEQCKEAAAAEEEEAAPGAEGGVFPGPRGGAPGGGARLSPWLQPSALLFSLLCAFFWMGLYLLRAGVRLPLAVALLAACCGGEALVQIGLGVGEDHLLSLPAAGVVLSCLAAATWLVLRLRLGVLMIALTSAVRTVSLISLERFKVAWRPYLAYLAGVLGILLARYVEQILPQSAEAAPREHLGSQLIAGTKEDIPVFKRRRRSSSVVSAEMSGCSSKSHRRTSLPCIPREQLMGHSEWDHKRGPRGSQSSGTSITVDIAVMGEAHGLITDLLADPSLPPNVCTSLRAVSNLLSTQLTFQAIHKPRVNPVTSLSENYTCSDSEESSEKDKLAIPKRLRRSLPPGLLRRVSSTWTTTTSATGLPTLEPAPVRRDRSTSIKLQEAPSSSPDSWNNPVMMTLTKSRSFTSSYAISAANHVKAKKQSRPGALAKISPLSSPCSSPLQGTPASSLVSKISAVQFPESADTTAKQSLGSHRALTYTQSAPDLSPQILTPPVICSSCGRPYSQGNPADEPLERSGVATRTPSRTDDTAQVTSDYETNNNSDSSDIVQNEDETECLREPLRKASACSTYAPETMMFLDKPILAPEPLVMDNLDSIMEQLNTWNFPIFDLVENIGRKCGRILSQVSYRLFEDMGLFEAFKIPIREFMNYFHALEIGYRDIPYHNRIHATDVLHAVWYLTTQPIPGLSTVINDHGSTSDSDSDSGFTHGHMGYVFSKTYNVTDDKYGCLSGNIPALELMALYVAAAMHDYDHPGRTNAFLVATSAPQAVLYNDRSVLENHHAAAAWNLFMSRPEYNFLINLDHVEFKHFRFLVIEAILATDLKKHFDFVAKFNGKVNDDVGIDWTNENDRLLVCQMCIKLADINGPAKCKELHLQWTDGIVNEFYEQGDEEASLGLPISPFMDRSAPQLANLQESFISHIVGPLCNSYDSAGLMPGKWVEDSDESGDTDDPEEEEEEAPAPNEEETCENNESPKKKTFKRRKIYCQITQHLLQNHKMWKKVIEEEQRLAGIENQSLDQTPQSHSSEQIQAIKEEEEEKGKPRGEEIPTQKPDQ

[22] = target: Serine/threonine-protein kinase PRP4 homolog (Homo sapiens) (UniProt Q13523); settings: Compound concentration 100.0 nM
[23] = target: Sigma intracellular receptor 2 (Homo sapiens, UniProt Q5BJF2); settings: Compound concentration 10.0 uM
Chain of Sigma intracellular receptor 2 (Q5BJF2 whole entry): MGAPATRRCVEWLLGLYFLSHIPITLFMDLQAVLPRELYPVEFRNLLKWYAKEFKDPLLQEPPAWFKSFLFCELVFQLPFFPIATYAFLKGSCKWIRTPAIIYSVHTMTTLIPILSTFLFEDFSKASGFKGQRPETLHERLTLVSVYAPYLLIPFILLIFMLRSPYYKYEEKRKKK

[24] = target: Ribosomal protein S6 kinase alpha-1 (Homo sapiens) (UniProt Q15418); settings: Compound concentration 100.0 nM
[25] = target: Fibroblast growth factor receptor 3 (Homo sapiens) (UniProt P22607); settings: Compound concentration 100.0 nM
[26] = target: Transient receptor potential cation channel subfamily M member 6 (Homo sapiens) (UniProt Q9BX84); settings: Compound concentration 100.0 nM
[27] = target: Mitogen-activated protein kinase 4 (Homo sapiens) (UniProt P31152); settings: Compound concentration 100.0 nM
[28] = target: Activin receptor type-1B (Homo sapiens) (UniProt P36896); settings: Compound concentration 100.0 nM
Chain of Activin receptor type-1B (Homo sapiens) (P36896 whole entry): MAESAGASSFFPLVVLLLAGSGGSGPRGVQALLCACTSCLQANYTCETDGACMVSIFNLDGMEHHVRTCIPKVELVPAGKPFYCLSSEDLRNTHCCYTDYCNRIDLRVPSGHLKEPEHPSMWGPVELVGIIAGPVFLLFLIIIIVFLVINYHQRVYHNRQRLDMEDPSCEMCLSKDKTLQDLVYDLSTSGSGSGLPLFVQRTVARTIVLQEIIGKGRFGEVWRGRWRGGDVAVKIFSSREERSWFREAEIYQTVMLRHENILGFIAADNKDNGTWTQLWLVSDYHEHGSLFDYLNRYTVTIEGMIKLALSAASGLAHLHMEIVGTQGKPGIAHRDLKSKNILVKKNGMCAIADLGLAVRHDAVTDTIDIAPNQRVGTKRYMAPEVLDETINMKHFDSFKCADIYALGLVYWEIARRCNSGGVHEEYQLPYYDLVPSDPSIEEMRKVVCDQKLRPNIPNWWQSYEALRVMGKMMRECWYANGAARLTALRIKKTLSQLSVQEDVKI

[29] = target: Ribosomal protein S6 kinase alpha-6 (Homo sapiens) (UniProt Q9UK32); settings: Compound concentration 100.0 nM
[30] = target: Tyrosine-protein kinase Tec (Homo sapiens) (UniProt P42680); settings: Compound concentration 100.0 nM
[31] = target: Serine/threonine-protein kinase WNK3 (Homo sapiens) (UniProt Q9BYP7); settings: Compound concentration 100.0 nM
[32] = target: GABA-A receptor; anion channel (Rattus norvegicus) (UniProt O09028+P15431+P18506+P18508+P19969+P20236+P23574+P23576+P28471+P28473+P30191+P62813+P63079+P63138+Q91ZM7+Q9ES14); settings: Compound concentration 10.0 uM
[33] = target: Cyclin-dependent kinase 16 (Homo sapiens) (UniProt Q00536); settings: Compound concentration 100.0 nM
[34] = target: Mitogen-activated protein kinase kinase kinase 14 (Homo sapiens) (UniProt Q99558); settings: Compound concentration 100.0 nM
[35] = target: Serine/threonine-protein kinase Nek9 (Homo sapiens) (UniProt Q8TD19); settings: Compound concentration 100.0 nM
[36] = target: Calcium/calmodulin-dependent protein kinase type 1D (Homo sapiens) (UniProt Q8IU85); settings: Compound concentration 100.0 nM
Chain of Calcium/calmodulin-dependent protein kinase type 1D (Homo sapiens) (Q8IU85 whole entry, looked up): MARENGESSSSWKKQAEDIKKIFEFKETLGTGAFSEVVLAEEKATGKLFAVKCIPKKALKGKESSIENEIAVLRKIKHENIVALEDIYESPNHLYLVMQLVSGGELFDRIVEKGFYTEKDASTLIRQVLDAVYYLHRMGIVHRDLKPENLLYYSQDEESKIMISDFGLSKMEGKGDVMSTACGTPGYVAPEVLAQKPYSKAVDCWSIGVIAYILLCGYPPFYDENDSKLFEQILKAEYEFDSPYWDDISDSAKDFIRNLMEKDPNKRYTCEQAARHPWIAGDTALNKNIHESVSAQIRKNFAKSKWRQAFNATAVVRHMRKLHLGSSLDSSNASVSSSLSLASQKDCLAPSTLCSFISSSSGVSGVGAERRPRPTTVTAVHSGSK

[37] = target: Platelet-derived growth factor receptor beta (Homo sapiens) (UniProt P09619); settings: Compound concentration 100.0 nM
[38] = target: Fibroblast growth factor receptor 4 (Homo sapiens) (UniProt P22455); settings: Compound concentration 100.0 nM
[39] = target: MAP/microtubule affinity-regulating kinase 4 (Homo sapiens) (UniProt Q96L34); settings: Compound concentration 100.0 nM
[40] = target: Tyrosine-protein kinase ABL1 (Homo sapiens) (UniProt P00519); settings: Compound concentration 100.0 nM
[41] = target: Mitogen-activated protein kinase 7 (Homo sapiens) (UniProt Q13164); settings: Compound concentration 100.0 nM
[42] = target: Dual specificity mitogen-activated protein kinase kinase 1 (Homo sapiens) (UniProt Q02750); settings: Compound concentration 100.0 nM
[43] = target: Aurora kinase A (Homo sapiens) (UniProt O14965); settings: Compound concentration 100.0 nM
Chain of Aurora kinase A (Homo sapiens) (O14965 whole entry, canonical isoform): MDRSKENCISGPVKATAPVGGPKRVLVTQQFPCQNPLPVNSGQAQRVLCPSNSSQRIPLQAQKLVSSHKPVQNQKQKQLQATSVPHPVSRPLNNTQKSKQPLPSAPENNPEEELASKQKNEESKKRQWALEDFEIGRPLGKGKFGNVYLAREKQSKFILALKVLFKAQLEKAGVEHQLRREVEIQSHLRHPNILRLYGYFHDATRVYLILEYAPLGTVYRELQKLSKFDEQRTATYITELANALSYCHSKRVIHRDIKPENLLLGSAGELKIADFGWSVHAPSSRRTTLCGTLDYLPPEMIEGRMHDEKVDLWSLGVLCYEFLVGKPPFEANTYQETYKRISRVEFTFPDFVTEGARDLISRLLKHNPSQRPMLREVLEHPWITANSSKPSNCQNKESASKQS

[44] = target: Phosphatidylinositol 4,5-bisphosphate 3-kinase catalytic subunit gamma isoform (Homo sapiens) (UniProt P48736); settings: Compound concentration 100.0 nM

Chain of Serine/threonine-protein kinase TAO3 (Homo sapiens) (Q9H2K8 whole entry): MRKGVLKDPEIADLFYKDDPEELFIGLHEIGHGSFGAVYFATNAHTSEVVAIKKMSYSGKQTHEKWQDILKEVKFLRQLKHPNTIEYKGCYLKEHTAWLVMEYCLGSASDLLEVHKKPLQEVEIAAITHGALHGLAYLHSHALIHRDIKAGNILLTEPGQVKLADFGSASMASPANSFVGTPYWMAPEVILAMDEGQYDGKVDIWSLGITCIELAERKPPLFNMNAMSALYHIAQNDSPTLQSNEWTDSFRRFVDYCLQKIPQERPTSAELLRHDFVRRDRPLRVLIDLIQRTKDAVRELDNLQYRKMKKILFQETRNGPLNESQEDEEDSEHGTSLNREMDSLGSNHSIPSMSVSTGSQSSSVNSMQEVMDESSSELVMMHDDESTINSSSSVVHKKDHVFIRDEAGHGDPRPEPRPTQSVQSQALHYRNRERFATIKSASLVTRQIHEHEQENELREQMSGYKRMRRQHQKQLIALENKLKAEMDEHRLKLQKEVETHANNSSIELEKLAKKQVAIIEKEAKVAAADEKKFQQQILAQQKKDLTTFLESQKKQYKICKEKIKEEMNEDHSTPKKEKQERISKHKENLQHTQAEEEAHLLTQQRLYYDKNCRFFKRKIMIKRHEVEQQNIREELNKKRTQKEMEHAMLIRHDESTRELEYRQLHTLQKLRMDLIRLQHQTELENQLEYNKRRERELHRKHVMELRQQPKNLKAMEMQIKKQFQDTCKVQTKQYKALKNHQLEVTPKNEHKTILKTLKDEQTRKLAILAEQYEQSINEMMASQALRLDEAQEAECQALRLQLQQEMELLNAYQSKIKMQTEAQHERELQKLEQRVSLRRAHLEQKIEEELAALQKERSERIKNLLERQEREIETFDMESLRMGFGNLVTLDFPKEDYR

Q: With `CC(C)CC(=O)N1CCc2nc(-c3ccc(Br)cc3)nc(N(C)Cc3ccccc3)c2C1` [THPP-1-NC] as the compound, how does the residual activity [1] read?
A: 100%

Q: What about the residual activity [2] of the same compound?
A: 100%

Q: What about the residual activity [3] of the same compound?
A: 89%

Q: And the residual activity [4]?
A: 88%

Q: What about the residual activity [5] of the same compound?
A: 94%

Q: What about the residual activity [6] of the same compound?
A: 100%

Q: What about the residual activity [7] of the same compound?
A: 100%

Q: And the residual activity [8]?
A: 91%

Q: What about the residual activity [9] of the same compound?
A: 100%

Q: And the residual activity [10]?
A: 100%

Q: And the residual activity [11]?
A: 91%

Q: What about the residual activity [12] of the same compound?
A: 100%

Q: What about the residual activity [13] of the same compound?
A: 97%

Q: And the inhibition [14]?
A: 8.22%

Q: And the residual activity [15]?
A: 100%

Q: What about the residual activity [16] of the same compound?
A: 91%

Q: And the inhibition [17]?
A: 12.9%

Q: And the residual activity [18]?
A: 100%

Q: What about the residual activity [19] of the same compound?
A: 100%

Q: And the residual activity [20]?
A: 80%

Q: What about the Ki [21] of the same compound?
A: > 50 µM (not active)

Q: What about the residual activity [22] of the same compound?
A: 100%

Q: What about the inhibition [23] of the same compound?
A: 78.8%

Q: And the residual activity [24]?
A: 100%

Q: What about the residual activity [25] of the same compound?
A: 100%

Q: What about the residual activity [26] of the same compound?
A: 100%

Q: What about the residual activity [27] of the same compound?
A: 100%

Q: What about the residual activity [28] of the same compound?
A: 89%

Q: What about the residual activity [29] of the same compound?
A: 100%

Q: And the residual activity [30]?
A: 100%

Q: What about the residual activity [31] of the same compound?
A: 100%

Q: What about the inhibition [32] of the same compound?
A: -3.36%

Q: What about the residual activity [33] of the same compound?
A: 100%

Q: What about the residual activity [34] of the same compound?
A: 100%

Q: And the residual activity [35]?
A: 100%

Q: And the residual activity [36]?
A: 100%

Q: And the residual activity [37]?
A: 100%

Q: And the residual activity [38]?
A: 98%

Q: And the residual activity [39]?
A: 100%

Q: What about the residual activity [40] of the same compound?
A: 66%

Q: What about the residual activity [41] of the same compound?
A: 100%

Q: What about the residual activity [42] of the same compound?
A: 100%

Q: What about the residual activity [43] of the same compound?
A: 72%

Q: What about the residual activity [44] of the same compound?
A: 100%

Q: What does the source list for `COCCOc1nc(-c2ccc(Cl)nc2)nc2c1CN(C(=O)c1ncn3ccccc13)CC2` [THPP-1]?
A: residual activity [1]: 100%; residual activity [2]: 100%; residual activity [3]: 96%; residual activity [4]: 81%; residual activity [5]: 100%; residual activity [6]: 100%; residual activity [7]: 100%; residual activity [8]: 91%; residual activity [9]: 100%; residual activity [10]: 100%; residual activity [11]: 62%; residual activity [12]: 100%; residual activity [13]: 94%; inhibition [14]: 6.52%; residual activity [15]: 100%; residual activity [16]: 84%; inhibition [17]: 23.3%; residual activity [18]: 100%; residual activity [19]: 100%; residual activity [20]: 82%; Ki [21]: 3.3 µM (not active); residual activity [22]: 100%; inhibition [23]: 55.6%; residual activity [24]: 100%; residual activity [25]: 100%; residual activity [26]: 100%; residual activity [27]: 100%; residual activity [28]: 86%; residual activity [29]: 100%; residual activity [30]: 100%; residual activity [31]: 100%; inhibition [32]: 24.9%; residual activity [33]: 100%; residual activity [34]: 100%; residual activity [35]: 100%; residual activity [36]: 100%; residual activity [37]: 100%; residual activity [38]: 90%; residual activity [39]: 100%; residual activity [40]: 68%; residual activity [41]: 100%; residual activity [42]: 100%; residual activity [43]: 81%; residual activity [44]: 100%
